From paper PMC6009956, “Design, synthesis and biological activity of N^4-phenylsubstituted-7H-pyrrolo[2,3-d]pyrimidin-4-amines as dual inhibitors of aurora kinase A and epidermal growth factor receptor kinase” (Journal of Enzyme Inhibition and Medicinal Chemistry, 2017)
Where two headings read alike, the source gives them in different places.

How the values were obtained:
aurora A kinase (AURKA) = biological target: T1, aurora A kinase (AURKA) (Homo sapiens, UniProt O14965); assay: ADP-Glo kinase assay, Aurora A; format: biochemical
T1 construct: purchased BPS Bioscience (assay run externally by the vendor)
T1 sequence (O14965 1-403): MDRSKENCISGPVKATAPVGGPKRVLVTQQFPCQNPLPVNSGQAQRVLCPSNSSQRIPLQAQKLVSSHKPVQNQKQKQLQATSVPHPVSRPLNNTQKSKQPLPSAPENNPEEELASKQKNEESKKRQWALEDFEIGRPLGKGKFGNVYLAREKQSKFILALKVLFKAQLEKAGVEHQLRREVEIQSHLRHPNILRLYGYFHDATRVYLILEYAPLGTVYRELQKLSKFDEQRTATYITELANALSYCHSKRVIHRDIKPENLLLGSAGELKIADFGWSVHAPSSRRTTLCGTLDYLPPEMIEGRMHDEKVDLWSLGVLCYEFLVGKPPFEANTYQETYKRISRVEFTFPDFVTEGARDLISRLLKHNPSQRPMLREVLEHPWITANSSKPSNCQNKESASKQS

EGFR = EGFR (Homo sapiens, UniProt P00533); assay: ADP-Glo kinase assay, EGFR; format: biochemical; parameters: purchased BPS Bioscience (assay run externally by the vendor)
Sequence of EGFR (P00533 25-1210): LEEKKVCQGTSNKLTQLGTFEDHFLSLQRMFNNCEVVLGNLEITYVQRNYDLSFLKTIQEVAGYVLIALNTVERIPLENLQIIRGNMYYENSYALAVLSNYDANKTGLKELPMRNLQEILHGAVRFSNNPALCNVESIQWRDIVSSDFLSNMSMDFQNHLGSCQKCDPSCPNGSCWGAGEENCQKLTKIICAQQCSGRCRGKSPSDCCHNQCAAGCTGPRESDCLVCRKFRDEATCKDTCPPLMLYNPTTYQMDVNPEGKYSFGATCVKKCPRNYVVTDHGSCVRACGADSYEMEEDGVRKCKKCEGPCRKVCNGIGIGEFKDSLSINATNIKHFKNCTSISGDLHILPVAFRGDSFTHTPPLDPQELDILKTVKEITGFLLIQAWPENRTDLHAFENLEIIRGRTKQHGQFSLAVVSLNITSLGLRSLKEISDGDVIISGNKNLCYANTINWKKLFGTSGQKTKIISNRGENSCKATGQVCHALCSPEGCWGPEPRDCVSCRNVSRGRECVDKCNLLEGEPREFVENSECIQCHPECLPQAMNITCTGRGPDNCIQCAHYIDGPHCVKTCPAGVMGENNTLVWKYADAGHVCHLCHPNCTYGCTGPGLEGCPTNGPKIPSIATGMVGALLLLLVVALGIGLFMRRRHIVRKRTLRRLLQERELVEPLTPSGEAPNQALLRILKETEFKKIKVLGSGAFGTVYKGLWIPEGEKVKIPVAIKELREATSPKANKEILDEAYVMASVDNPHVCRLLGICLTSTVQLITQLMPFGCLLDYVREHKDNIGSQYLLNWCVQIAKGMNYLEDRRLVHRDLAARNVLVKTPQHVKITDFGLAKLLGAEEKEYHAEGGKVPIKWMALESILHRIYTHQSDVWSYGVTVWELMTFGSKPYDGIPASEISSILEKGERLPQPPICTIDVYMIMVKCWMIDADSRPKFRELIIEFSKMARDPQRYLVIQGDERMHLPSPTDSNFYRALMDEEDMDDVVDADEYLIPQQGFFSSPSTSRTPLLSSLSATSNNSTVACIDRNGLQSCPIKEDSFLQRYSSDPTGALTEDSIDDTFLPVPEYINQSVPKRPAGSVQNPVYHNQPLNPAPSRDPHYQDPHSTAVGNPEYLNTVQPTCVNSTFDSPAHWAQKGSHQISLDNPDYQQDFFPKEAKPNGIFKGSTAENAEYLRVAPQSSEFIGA

[1] = 10 µM ATP, triplicate, read-out: AURKA IC50 ± SD
[2] = 10 µM ATP/0.2 mg/ml Kemptide, read-out: Aurora A IC50 (dose-response curve, supplement)
[3] = 10 µM ATP, triplicate, read-out: EGFR IC50 ± SD
[4] = 10 µM ATP/0.2 mg/ml Poly-Glu-Tyr, read-out: EGFR IC50 (dose-response curve, supplement)

Clc1ccccc1Nc1ncnc2[nH]ccc12 [Compound 14, N^4-(2-chlorophenyl)-7H-pyrrolo[2,3-d]pyrimidin-4-amine]
IC50 (aurora A kinase (AURKA); [1]): 5660 ± 430 nM
IC50 (aurora A kinase (AURKA); [2]): 5700 nM
Aurora A % Activity Set1 (aurora A kinase (AURKA); Log[nM] 0): 97%
Aurora A % Activity Set2 (aurora A kinase (AURKA); Log[nM] 0): 92%
Aurora A % Activity Set3 (aurora A kinase (AURKA); Log[nM] 0): 94%
Aurora A % Activity Set1 (aurora A kinase (AURKA); Log[nM] 1.0): 102%
Aurora A % Activity Set2 (aurora A kinase (AURKA); Log[nM] 1.0): 97%
Aurora A % Activity Set3 (aurora A kinase (AURKA); Log[nM] 1.0): 98%
Aurora A % Activity Set1 (aurora A kinase (AURKA); Log[nM] 1.5): 111%
Aurora A % Activity Set2 (aurora A kinase (AURKA); Log[nM] 1.5): 96%
Aurora A % Activity Set3 (aurora A kinase (AURKA); Log[nM] 1.5): 98%
Aurora A % Activity Set1 (aurora A kinase (AURKA); Log[nM] 2.0): 103%
Aurora A % Activity Set2 (aurora A kinase (AURKA); Log[nM] 2.0): 98%
Aurora A % Activity Set3 (aurora A kinase (AURKA); Log[nM] 2.0): 102%
Aurora A % Activity Set1 (aurora A kinase (AURKA); Log[nM] 2.5): 101%
Aurora A % Activity Set2 (aurora A kinase (AURKA); Log[nM] 2.5): 106%
Aurora A % Activity Set3 (aurora A kinase (AURKA); Log[nM] 2.5): 101%
Aurora A % Activity Set1 (aurora A kinase (AURKA); Log[nM] 3.0): 87%
Aurora A % Activity Set2 (aurora A kinase (AURKA); Log[nM] 3.0): 86%
Aurora A % Activity Set3 (aurora A kinase (AURKA); Log[nM] 3.0): 93%
Aurora A % Activity Set1 (aurora A kinase (AURKA); Log[nM] 3.5): 73%
Aurora A % Activity Set2 (aurora A kinase (AURKA); Log[nM] 3.5): 68%
Aurora A % Activity Set3 (aurora A kinase (AURKA); Log[nM] 3.5): 73%
Aurora A % Activity Set1 (aurora A kinase (AURKA); Log[nM] 4.0): 28%
Aurora A % Activity Set2 (aurora A kinase (AURKA); Log[nM] 4.0): 25%
Aurora A % Activity Set3 (aurora A kinase (AURKA); Log[nM] 4.0): 27%
Aurora A % Activity Set1 (aurora A kinase (AURKA); Log[nM] 4.5): 14%
Aurora A % Activity Set2 (aurora A kinase (AURKA); Log[nM] 4.5): 13%
Aurora A % Activity Set3 (aurora A kinase (AURKA); Log[nM] 4.5): 14%
Aurora A % Activity Set1 (aurora A kinase (AURKA); Log[nM] 5.0): 13%
Aurora A % Activity Set2 (aurora A kinase (AURKA); Log[nM] 5.0): 11%
Aurora A % Activity Set3 (aurora A kinase (AURKA); Log[nM] 5.0): 14%
IC50 (EGFR; [3]): 471 ± 114 nM
IC50 (EGFR; [4]): 471 nM
EGFR % Activity Set1 (EGFR; Log[nM] 0): 100%
EGFR % Activity Set2 (EGFR; Log[nM] 0): 95%
EGFR % Activity Set3 (EGFR; Log[nM] 0): 94%
EGFR % Activity Set1 (EGFR; Log[nM] 1.0): 105%
EGFR % Activity Set2 (EGFR; Log[nM] 1.0): 90%
EGFR % Activity Set3 (EGFR; Log[nM] 1.0): 96%
EGFR % Activity Set1 (EGFR; Log[nM] 1.5): 108%
EGFR % Activity Set2 (EGFR; Log[nM] 1.5): 83%
EGFR % Activity Set3 (EGFR; Log[nM] 1.5): 93%
EGFR % Activity Set1 (EGFR; Log[nM] 2.0): 89%
EGFR % Activity Set2 (EGFR; Log[nM] 2.0): 75%
EGFR % Activity Set3 (EGFR; Log[nM] 2.0): 84%
EGFR % Activity Set1 (EGFR; Log[nM] 2.5): 62%
EGFR % Activity Set2 (EGFR; Log[nM] 2.5): 53%
EGFR % Activity Set3 (EGFR; Log[nM] 2.5): 57%
EGFR % Activity Set1 (EGFR; Log[nM] 3.0): 36%
EGFR % Activity Set2 (EGFR; Log[nM] 3.0): 27%
EGFR % Activity Set3 (EGFR; Log[nM] 3.0): 33%
EGFR % Activity Set1 (EGFR; Log[nM] 3.5): 16%
EGFR % Activity Set2 (EGFR; Log[nM] 3.5): 14%
EGFR % Activity Set3 (EGFR; Log[nM] 3.5): 16%
EGFR % Activity Set1 (EGFR; Log[nM] 4.0): 8%
EGFR % Activity Set2 (EGFR; Log[nM] 4.0): 6%
EGFR % Activity Set3 (EGFR; Log[nM] 4.0): 7%
EGFR % Activity Set1 (EGFR; Log[nM] 4.5): 4%
EGFR % Activity Set2 (EGFR; Log[nM] 4.5): 3%
EGFR % Activity Set3 (EGFR; Log[nM] 4.5): 3%
EGFR % Activity Set1 (EGFR; Log[nM] 5.0): 5%
EGFR % Activity Set2 (EGFR; Log[nM] 5.0): 4%
EGFR % Activity Set3 (EGFR; Log[nM] 5.0): 4%

Nc1nc(Nc2cccc(Br)c2)c2cc[nH]c2n1 [Compound 8, N^4-(3-bromophenyl)-7H-pyrrolo[2,3-d]pyrimidine-2,4-diamine]
Fold less potent than compound 2 against AURKA (aurora A kinase (AURKA)): approximately two-fold
IC50 (aurora A kinase (AURKA); [1]): 4540 ± 930 nM
IC50 (aurora A kinase (AURKA); [2]): 4500 nM
Aurora A % Activity Set1 (aurora A kinase (AURKA); Log[nM] 0): 103%
Aurora A % Activity Set2 (aurora A kinase (AURKA); Log[nM] 0): 107%
Aurora A % Activity Set3 (aurora A kinase (AURKA); Log[nM] 0): 99%
Aurora A % Activity Set1 (aurora A kinase (AURKA); Log[nM] 1.0): 110%
Aurora A % Activity Set2 (aurora A kinase (AURKA); Log[nM] 1.0): 101%
Aurora A % Activity Set3 (aurora A kinase (AURKA); Log[nM] 1.0): 111%
Aurora A % Activity Set1 (aurora A kinase (AURKA); Log[nM] 1.5): 109%
Aurora A % Activity Set2 (aurora A kinase (AURKA); Log[nM] 1.5): 108%
Aurora A % Activity Set3 (aurora A kinase (AURKA); Log[nM] 1.5): 105%
Aurora A % Activity Set1 (aurora A kinase (AURKA); Log[nM] 2.0): 109%
Aurora A % Activity Set2 (aurora A kinase (AURKA); Log[nM] 2.0): 109%
Aurora A % Activity Set3 (aurora A kinase (AURKA); Log[nM] 2.0): 109%
Aurora A % Activity Set1 (aurora A kinase (AURKA); Log[nM] 2.5): 96%
Aurora A % Activity Set2 (aurora A kinase (AURKA); Log[nM] 2.5): 101%
Aurora A % Activity Set3 (aurora A kinase (AURKA); Log[nM] 2.5): 113%
Aurora A % Activity Set1 (aurora A kinase (AURKA); Log[nM] 3.0): 84%
Aurora A % Activity Set2 (aurora A kinase (AURKA); Log[nM] 3.0): 80%
Aurora A % Activity Set3 (aurora A kinase (AURKA); Log[nM] 3.0): 92%
Aurora A % Activity Set1 (aurora A kinase (AURKA); Log[nM] 3.5): 55%
Aurora A % Activity Set2 (aurora A kinase (AURKA); Log[nM] 3.5): 57%
Aurora A % Activity Set3 (aurora A kinase (AURKA); Log[nM] 3.5): 59%
Aurora A % Activity Set1 (aurora A kinase (AURKA); Log[nM] 4.0): 30%
Aurora A % Activity Set2 (aurora A kinase (AURKA); Log[nM] 4.0): 28%
Aurora A % Activity Set3 (aurora A kinase (AURKA); Log[nM] 4.0): 29%
Aurora A % Activity Set1 (aurora A kinase (AURKA); Log[nM] 4.5): 11%
Aurora A % Activity Set2 (aurora A kinase (AURKA); Log[nM] 4.5): 11%
Aurora A % Activity Set3 (aurora A kinase (AURKA); Log[nM] 4.5): 11%
Aurora A % Activity Set1 (aurora A kinase (AURKA); Log[nM] 5.0): 8%
Aurora A % Activity Set2 (aurora A kinase (AURKA); Log[nM] 5.0): 7%
Aurora A % Activity Set3 (aurora A kinase (AURKA); Log[nM] 5.0): 8%
Fold less potent than compound 7 against EGFR (EGFR): 100 fold
IC50 (EGFR; [3]): 384 ± 65.5 nM
IC50 (EGFR; [4]): 357 nM
EGFR % Activity Set1 (EGFR; Log[nM] 0): 97%
EGFR % Activity Set2 (EGFR; Log[nM] 0): 99%
EGFR % Activity Set3 (EGFR; Log[nM] 0): 99%
EGFR % Activity Set1 (EGFR; Log[nM] 1.0): 95%
EGFR % Activity Set2 (EGFR; Log[nM] 1.0): 102%
EGFR % Activity Set3 (EGFR; Log[nM] 1.0): 91%
EGFR % Activity Set1 (EGFR; Log[nM] 1.5): 93%
EGFR % Activity Set2 (EGFR; Log[nM] 1.5): 102%
EGFR % Activity Set3 (EGFR; Log[nM] 1.5): 84%
EGFR % Activity Set1 (EGFR; Log[nM] 2.0): 80%
EGFR % Activity Set2 (EGFR; Log[nM] 2.0): 83%
EGFR % Activity Set3 (EGFR; Log[nM] 2.0): 82%
EGFR % Activity Set1 (EGFR; Log[nM] 2.5): 51%
EGFR % Activity Set2 (EGFR; Log[nM] 2.5): 49%
EGFR % Activity Set3 (EGFR; Log[nM] 2.5): 53%
EGFR % Activity Set1 (EGFR; Log[nM] 3.0): 26%
EGFR % Activity Set2 (EGFR; Log[nM] 3.0): 23%
EGFR % Activity Set3 (EGFR; Log[nM] 3.0): 27%
EGFR % Activity Set1 (EGFR; Log[nM] 3.5): 12%
EGFR % Activity Set2 (EGFR; Log[nM] 3.5): 9%
EGFR % Activity Set3 (EGFR; Log[nM] 3.5): 10%
EGFR % Activity Set1 (EGFR; Log[nM] 4.0): 4%
EGFR % Activity Set2 (EGFR; Log[nM] 4.0): 5%
EGFR % Activity Set3 (EGFR; Log[nM] 4.0): 4%
EGFR % Activity Set1 (EGFR; Log[nM] 4.5): 2%
EGFR % Activity Set2 (EGFR; Log[nM] 4.5): 3%
EGFR % Activity Set3 (EGFR; Log[nM] 4.5): 1%
EGFR % Activity Set1 (EGFR; Log[nM] 5.0): 1%
EGFR % Activity Set2 (EGFR; Log[nM] 5.0): 1%
EGFR % Activity Set3 (EGFR; Log[nM] 5.0): 2%
